Measurements reported in patent US8569264B2, “Antibacterial 4,5-substituted aminoglycoside analogs having multiple substituents” (ISIS Pharmaceuticals, Inc., priority 2005, dated 2013).
Where two headings read alike, the source gives them in different places.

Columns and labels:
[1] = tested on: P. aurginosa ATCC 25416; assay: MIC, P. aurginosa ATCC 25416; assay type: cell-based
Protocol: (§1) The MIC assays are carried out in 150 μL volume in duplicate in 96-well clear flat-bottom plates. The bacterial suspension from an overnight culture growth in appropriate medium is added to a solution of test compound in 4% DMSO in water. Final bacterial inoculum is approximately 10^5-10^6 CFU/well. […] Both ampicillin and tetracycline are used as antibiotic-positive controls in each screening assay for S. pyogenes, E. coli imp-, E. coli, S. aureus, E. faecalis, K. pneumoniae and P. vulgaris. Ciprofloxacin is used as an antibiotic positive control in each screening assay for P. aeruginosa.
(§2) The following compounds were prepared using methods illustrated in the previous examples. The compounds were also examined in standard bacterial assays against E. Coli, S. Aureus, P. aurginosa, K. pneumoniae, P. vulgaris, and A. baumannii to determine activities. Each of the bacterial cultures that are available from ATCC (www.atcc.org) is identified by its ATCC number. A. baumannii is gentamicin sensitive Acinetobacter baumannii #2 from Walter Reed.

[2] = tested on: K. pneumoniae ATCC 10031; assay: MIC, K. pneumoniae ATCC 10031; assay type: cell-based
Protocol: as §1, §2

[3] = tested on: P. aurginosa ATCC 29248; assay: MIC, P. aurginosa ATCC 29248; assay type: cell-based
Protocol: as §1, §2

[4] = molecular target: 16S ribosomal subunit RNA target; assay: Mass spectrometry based binding assay (FTICR), 16S
In short: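 Binding to the 16S ribosomal subunit RNA target was measured by FTICR mass spectrometry. Ligands or ligand mixtures were prepared at several concentrations in 10 μL of aqueous 100 mM ammonium acetate buffer with 33% isopropyl alcohol. Samples were infused at 1 μL/min into a negative-mode electrospray source, and ions were held 1 sec in an RF-only hexapole. Complex/free RNA ratios versus ligand concentration were fitted to a binding polynomial to obtain KD.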

[5] = tested on: S. Aureus; assay: MIC, S. Aureus; assay type: cell-based
In short: (§3)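 Broth microdilution in duplicate, 150 μL: overnight-culture bacteria were added to compound in 4% DMSO in water. Final inoculum was about 10^5–10^6 CFU/well.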

[6] = tested on: E. coli ATCC 25922; assay: MIC, E. coli ATCC 25922; assay type: cell-based
Protocol: as §1, §2

[7] = tested on: gentamicin sensitive Acinetobacter baumannii #2 from Walter Reed; assay: MIC, A. baumannii WReed 2; assay type: cell-based
Protocol: as §1, §2

[8] = molecular target: 18S ribosomal subunit RNA target; assay: Mass spectrometry based binding assay (FTICR), 18S
In short: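 Ligands at varying concentrations were mixed with 2.5 or 5 μM RNA in 100 mM ammonium acetate with 33% isopropyl alcohol, then analysed by negative-mode ESI-FTICR. Complex/free RNA ion ratios plotted against ligand concentration were fitted to a second- or higher-order binding polynomial to give KD.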

[9] = tested on: E. coli S30 bacterial extract (pBestLuc firefly luciferase reporter); assay: Coupled bacterial transcription/translation assay; assay type: biochemical; conditions: read-out: Trans/Trans IC50
In short: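 Coupled transcription/translation of firefly luciferase from 1 μg pBestLuc (tac promoter) in E. coli S30 extract, with or without test compound. Reaction 35 min at 37° C., then functional luciferase detected by luminescence.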

[10] = tested on: E. Coli; assay: MIC, E. Coli; assay type: cell-based
In short: as §3

[11] = tested on: Staphylococcus aureus (Smith Strain ATCC 13709); assay: Staphylococcus aureus mouse protection assay; assay type: in vivo, mice; conditions: for # Dead mice/Total mice in group: Staph Conc. 10^6, 10% Mucin
Protocol: Two of the novel aminoglycoside compounds of the invention were examined for their anitbacterial activity against staphylococcus aureus. Mice were fed with autoclaved commercial food pellets and sterile water ad libitum. Animals were inoculated intraperitoneally with 0.5 mL/mouse of the indicated concentration of S. aureus (ATCC 13709) containing 10% mucin. There were 10 mice in each treatment group and compounds were administered subcutaneously one and 3 hour after infection. Compounds 15a (R4═R5═CH3) and 15j (R4═H, R5═(CH2)2C6H5)) were used at 75 mg/kg, 37.5 mg/kg, 18.8 mg/kg, 9.4 mg/kg, 4.7 mg/kg, 2.3 mg/kg, 1.17 mg/kg and 0.5 mg/kg. Amakacin, paromomycin and neomycin were used as the positive controls at concentrations of 2 mg/kg, 1 mg/kg and 0.5 mg/kg.
Test compound was administered as an aqueous buffer solution (phosphate buffered saline (PBS), pH=7.4).

[12] = tested on: S. aureus ATCC 13709; assay: MIC, S. aureus ATCC 13709; assay type: cell-based
Protocol: as §1, §2

[13] = tested on: P. vulgaris ATCC 8427; assay: MIC, P. vulgaris ATCC 8427; assay type: cell-based
Protocol: as §1, §2

[14] = Example 110, listed as 9p - sample 1
[15] = Example 110, listed as 9p - sample 2

`NCC1OC(OC2C(CO)OC(OC3C(O)C(N)CC(N)C3OC3OC(CO)C(O)C(O)C3N)C2OCCNCCc2ccccc2)C(N)C(O)C1O` (stereo not drawn) [Compound 9p] was tested, and the “MIC P. aurginosa ATCC 25416” value ([1]; Example 110) was over 40 µM, the “MIC P. aurginosa ATCC 25416” value ([1]; Example 111) was over 40 µM and the “MIC K. pneumoniae ATCC 10031” value [2, 14] was 1.3 to 2.5 µM. For the same compound, the “MIC K. pneumoniae ATCC 10031” value [2, 15] was over 40 µM, the “MIC K. pneumoniae ATCC 10031” value ([2]; Example 111) was 2.5-5^ uM and the “MIC P. aurginosa ATCC 29248” value ([3]; Example 110) was over 40 µM. The “MIC P. aurginosa ATCC 29248” value ([3]; Example 111) was over 40 µM, the Kd ([4]; FTICR mass spectrometry, run at 100 nM RNA, Example 105) was 0.1 µM and the “MIC S. Aureus” value ([5]; Example 105) was 0.3 to 0.6 µM. The “MIC E. coli ATCC 25922” value [6, 14] was 5 to 10 µM, the “MIC E. coli ATCC 25922” value [6, 15] was over 40 µM and the “MIC E. coli ATCC 25922” value ([6]; Example 111) was 5 to 10 µM. The “MIC A. baumannii WReed 2” value [7, 14] was 2.5-5^ uM, the “MIC A. baumannii WReed 2” value [7, 15] was over 40 µM and the “MIC A. baumannii WReed 2” value ([7]; Example 111) was over 40 µM. For the same compound, the Kd ([8]; FTICR mass spectrometry, Example 105) was 1.3 µM, the IC50 ([9]; Example 105) was 1.1 µM and the “MIC E. Coli.” value ([10]; Example 105) was 3 to 6 µM. For the same compound, the “# Dead mice/Total mice in group” value ([11]; 0.1 mg/kg in PBS pH=7.4, the 14th table) was 5/10 (10% Mucin), the “# Dead mice/Total mice in group” value ([11]; 0.5 mg/kg in PBS pH=7.4, the 14th table) was 0/10 (10% Mucin) and the “# Dead mice/Total mice in group” value ([11]; 1 mg/kg in PBS pH=7.4, the 14th table) was 0/10 (10% Mucin). For the same compound, the “# Dead mice/Total mice in group” value ([11]; 2 mg/kg in PBS pH=7.4, the 14th table) was 0/10 (10% Mucin), the “# Dead mice/Total mice in group” value ([11]; 4.5 mg/kg in PBS pH=7.4, the 14th table) was 0/10 (10% Mucin) and the “# Dead mice/Total mice in group” value ([11]; 9 mg/kg in PBS pH=7.4, the 14th table) was 0/10 (10% Mucin). For the same compound, the “# Dead mice/Total mice in group” value ([11]; 18 mg/kg in PBS pH=7.4, the 14th table) was 0/10 (10% Mucin), the “# Dead mice/Total mice in group” value ([11]; 37 mg/kg in PBS pH=7.4, the 14th table) was 0/10 (10% Mucin) and the “# Dead mice/Total mice in group” value ([11]; 75 mg/kg in PBS pH=7.4, the 14th table) was 0/10 (10% Mucin). For the same compound, the “# Dead mice/Total mice in group” value ([11]; […] in PBS pH=7.4, the 14th table) was 1/10 (10% Mucin), the smallest protective dose ([11]; protective at doses as small as, summary of the 14th table) was 0.25 mg/kg and the “prevention of lethal bacterial infections in mice” value ([11]; result in words, summary of the 14th table) was “effective at preventing lethal bacterial infections in mice”. For the same compound, the “MIC S. aureus ATCC 13709” value [12, 14] was 10 to 20 µM, the “MIC S. aureus ATCC 13709” value [12, 15] was 1.2 to 2.5 µM and the “MIC S. aureus ATCC 13709” value ([12]; Example 111) was 0.6 to 1.3 µM. For the same compound, the “MIC P. vulgaris ATCC 8427” value [13, 14] was 2.5-5^ uM, the “MIC P. vulgaris ATCC 8427” value [13, 15] was 20 to 40 µM and the “MIC P. vulgaris ATCC 8427” value ([13]; Example 111) was over 40 µM.

For `NCC1OC(OC2C(CO)OC(OC3C(O)C(N)CC(N)C3OC3OC(CNCCc4ccccc4)C(O)C(O)C3N)C2O)C(N)C(O)C1O` (stereo not drawn) [Compound 15j], the “MIC P. aurginosa ATCC 25416” value ([1]; Example 110) was over 40 µM, the “MIC P. aurginosa ATCC 25416” value ([1]; Example 111) was over 40 µM and the “MIC K. pneumoniae ATCC 10031” value ([2]; Example 110) was under 0.6 µM. The “MIC K. pneumoniae ATCC 10031” value ([2]; Example 111) was 0.6 to 1.3 µM, the “MIC P. aurginosa ATCC 29248” value ([3]; Example 110) was over 40 µM and the “MIC P. aurginosa ATCC 29248” value ([3]; Example 111) was over 40 µM. The Kd ([4]; Example 108) was 0.5 µM, the “MIC S. Aureus” value ([5]; Example 108) was 0.3 to 0.6 µM and the “MIC E. coli ATCC 25922” value ([6]; Example 110) was 1.3 to 2.5 µM. The “MIC E. coli ATCC 25922” value ([6]; Example 111) was 1.3 to 2.5 µM, the “MIC A. baumannii WReed 2” value ([7]; Example 110) was 1.3 to 2.5 µM and the “MIC A. baumannii WReed 2” value ([7]; Example 111) was 20 to 40 µM. For the same compound, the Kd ([8]; Example 108) was 2.2 µM, the IC50 ([9]; Example 108) was 0.2 µM and the “MIC E. Coli.” value ([10]; Example 108) was 1.3 to 2.5 µM. For the same compound, the “# Dead mice/Total mice in group” value ([11]; 0.5 mg/kg subcutaneously, the 13th table) was 7/10, the “# Dead mice/Total mice in group” value ([11]; 1 mg/kg subcutaneously, the 13th table) was 0/10 and the “# Dead mice/Total mice in group” value ([11]; 2 mg/kg subcutaneously, the 13th table) was 0/10. For the same compound, the “# Dead mice/Total mice in group” value ([11]; 4.5 mg/kg subcutaneously, the 13th table) was 0/10, the “# Dead mice/Total mice in group” value ([11]; 9 mg/kg subcutaneously, the 13th table) was 0/10 and the “# Dead mice/Total mice in group” value ([11]; 18 mg/kg subcutaneously, the 13th table) was 0/10. For the same compound, the “# Dead mice/Total mice in group” value ([11]; 37 mg/kg subcutaneously, the 13th table) was 0/10, the “# Dead mice/Total mice in group” value ([11]; 75 mg/kg subcutaneously one and 3 hour after infection, intraperitoneal, the 13th table) was 0/10 and the “MIC S. aureus ATCC 13709” value ([12]; Example 110) was 10 to 20 µM. The “MIC S. aureus ATCC 13709” value ([12]; Example 111) was 0.3 to 0.6 µM, the “MIC P. vulgaris ATCC 8427” value ([13]; Example 110) was 1.3 to 2.5 µM and the “MIC P. vulgaris ATCC 8427” value ([13]; Example 111) was over 40 µM.

For `NCC1OC(OC2C(CO)OC(OC3C(O)C(N)CC(N)C3OC3OC(CNCCCc4ccccc4)C(O)C(O)C3N)C2O)C(N)C(O)C1O` (stereo not drawn) [Compound 15l], the “MIC P. aurginosa ATCC 25416” value ([1]; Example 111) was over 40 µM, the “MIC K. pneumoniae ATCC 10031” value ([2]; Example 111) was 0.6 to 1.3 µM and the “MIC P. aurginosa ATCC 29248” value ([3]; Example 111) was over 40 µM. For the same compound, the “MIC S. Aureus” value ([5]; Example 109) was 0.3 to 0.6 µM, the “MIC E. coli ATCC 25922” value ([6]; Example 111) was 1.3 to 2.5 µM and the “MIC A. baumannii WReed 2” value ([7]; Example 111) was 10 to 20 µM. For the same compound, the “MIC E. Coli.” value ([10]; Example 109) was 0.6 to 1.2 µM, the “MIC S. aureus ATCC 13709” value ([12]; Example 111) was 0.2 to 0.3 µM and the “MIC P. vulgaris ATCC 8427” value ([13]; Example 111) was over 40 µM.
